Values belong to the compound of their own block, whether it stands above or below them.
Key:
FAAH = biological target: T1, FAAH (Homo sapiens, UniProt O00519); assay: Assay Method 1: FAAH assay, 3H-anandamide hydrolysis in homogenate of cells transfected with human FAAH; assay type: biochemical; set-up: expressed in transfected cells; crude homogenate (T84 cell pellets named as alternative); details: cell homogenate, 3H-AEA 80 nM, 1 h at rt, average of results
T1 sequence (O00519 1-579): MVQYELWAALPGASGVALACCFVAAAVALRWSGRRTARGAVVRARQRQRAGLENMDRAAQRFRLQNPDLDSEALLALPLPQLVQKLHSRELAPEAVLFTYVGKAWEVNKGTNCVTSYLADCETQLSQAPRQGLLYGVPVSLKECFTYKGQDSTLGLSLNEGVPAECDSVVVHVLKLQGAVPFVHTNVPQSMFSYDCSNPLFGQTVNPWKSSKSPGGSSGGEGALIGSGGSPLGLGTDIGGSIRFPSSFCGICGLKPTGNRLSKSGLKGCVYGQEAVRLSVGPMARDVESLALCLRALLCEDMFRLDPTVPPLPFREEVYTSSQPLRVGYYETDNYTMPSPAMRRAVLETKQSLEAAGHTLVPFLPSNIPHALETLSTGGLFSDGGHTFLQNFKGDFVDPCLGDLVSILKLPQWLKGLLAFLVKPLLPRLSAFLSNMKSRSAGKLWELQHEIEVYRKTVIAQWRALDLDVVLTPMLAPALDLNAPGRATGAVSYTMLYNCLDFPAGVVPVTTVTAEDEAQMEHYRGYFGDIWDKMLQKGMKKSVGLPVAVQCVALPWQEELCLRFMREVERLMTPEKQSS
Procedure: A. Transfection of Cells with Human FAAH
(§1) A 10-cm tissue culture dish with a confluent monolayer of SK-N-MC cells was split 2 days (d) prior to transfection. Using sterile technique, the media was removed and the cells were detached from the dish by the addition of trypsin. One fifth of the cells were then placed onto a new 10-cm dish. Cells were grown in a 37° C. incubator with 5% CO2 in Minimal Essential Media Eagle with 10% Fetal Bovine Serum. After 2 d, cells were approximately 80% confluent. These cells were removed from the dish with trypsin and pelleted in a clinical centrifuge. The pellet was re-suspended in 400 μL complete media and transferred to an electroporation cuvette with a 0.4 cm gap between the electrodes. Supercoiled human FAAH cDNA (1 μg) was added to the cells and mixed. The voltage for the electroporation was set at 0.25 kV, and the capacitance was set at 960 After electroporation, the cells were diluted into complete media (10 mL) and plated onto four 10-cm dishes. Because of the variability in the efficiency of electroporation, four different concentrations of cells were plated. The ratios used were 1:20, 1:10, and 1:5, with the remainder of the cells being added to the fourth dish. The cells were allowed to recover for 24 h before adding the selection media (complete media with 600 μg/mL G418). After 10 d, dishes were analyzed for surviving colonies of cells. Dishes with well-isolated colonies were used. Cells from individual colonies were isolated and tested.
(§2) T84 frozen cell pellets or transfected SK-N-MC cells (contents of 1×15 cm culture dishes) were homogenized in 50 mL of FAAH assay buffer (125 mM Tris, 1 mM EDTA, 0.2% Glycerol, 0.02% Triton X-100, 0.4 mM Hepes, pH 9). The assay mixture consisted of 50 μL of the cell homogenate, 10 μL of the test compound, and 40 μL of anandamide [1-^3H-ethanolamine] (^3H-AEA, Perkin-Elmer, 10.3 Ci/mmol), which was added last, for a final tracer concentration of 80 nM. The reaction mixture was incubated at rt for 1 h. During the incubation, 96-well Multiscreen filter plates (catalog number MAFCNOB50; Millipore, Bedford, Mass., USA) were loaded with 25 μL of activated charcoal (Multiscreen column loader, catalog number MACL09625, Millipore) and washed once with 100 μL of MeOH. Also during the incubation, 96-well DYNEX MicroLite plates (catalog number NL510410) were loaded with 100 μL of MicroScint40 (catalog number 6013641, Packard Bioscience, Meriden, Conn., USA). After the 1 h incubation, 60 μL of the reaction mixture were transferred to the charcoal plates, which were then assembled on top of the DYNEX plates using Centrifuge Alignment Frames (catalog number MACF09604, Millipore). The unbound labeled ethanolamine was centrifuged through to the bottom plate (5 min at 2000 rpm), which was preloaded with the scintillant, as described above. The plates were sealed and left at rt for 1 h before counting on a Hewlett Packard TopCount.
(§3) Results for compounds tested in these assays are summarized in Table 1, as an average of results obtained. Compounds were tested in the free base or trifluoroacetic acid salt form. Compounds tested in the trifluoroacetic acid salt form are indicated as such by a “*” designation after the example number. Where activity is shown as greater than (>) a particular value, the value is the solubility limit of the compound in the assay medium or the highest concentration tested in the assay.

rat FAAH = biological target: T2, rat FAAH (Rattus norvegicus, UniProt P97612); assay: Assay Method 2: FAAH assay, 3H-anandamide hydrolysis in homogenate of cells transfected with rat FAAH; assay type: biochemical; details: cell homogenate, 3H-AEA 80 nM, 1 h at rt, average of results
T2 construct: expressed in transfected cells; crude homogenate
T2 sequence (P97612 1-579): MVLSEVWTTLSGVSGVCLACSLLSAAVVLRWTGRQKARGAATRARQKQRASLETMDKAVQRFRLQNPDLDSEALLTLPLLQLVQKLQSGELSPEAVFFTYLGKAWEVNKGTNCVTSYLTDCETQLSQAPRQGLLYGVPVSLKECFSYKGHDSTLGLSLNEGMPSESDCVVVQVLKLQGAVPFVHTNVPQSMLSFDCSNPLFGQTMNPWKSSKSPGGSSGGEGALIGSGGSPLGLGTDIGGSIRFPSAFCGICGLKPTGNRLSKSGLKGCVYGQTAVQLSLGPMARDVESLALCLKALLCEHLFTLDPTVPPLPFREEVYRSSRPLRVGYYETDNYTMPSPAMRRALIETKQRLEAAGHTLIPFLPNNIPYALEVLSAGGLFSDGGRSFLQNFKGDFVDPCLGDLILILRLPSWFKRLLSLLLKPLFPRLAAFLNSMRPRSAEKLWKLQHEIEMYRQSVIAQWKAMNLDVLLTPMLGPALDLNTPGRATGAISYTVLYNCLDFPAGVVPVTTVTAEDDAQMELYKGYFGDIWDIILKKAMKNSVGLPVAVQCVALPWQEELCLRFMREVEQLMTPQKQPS
Procedure: A. Transfection of Cells with Rat FAAH
as §1, with “rat” for “human”, “960 μF.” for “960”
as §2, §3

Structure (SMILES): O=C(Nc1cccnc1)N1CC(COc2cccc(Oc3ccccc3)c2)C1 [Example 17, 3-(3-Phenoxy-phenoxymethyl)-azetidine-1-carboxylic acid pyridin-3-ylamide]
IC50 (FAAH): 170 nM
IC50 (rat FAAH): 340 nM

Structure (SMILES): O=C(Nc1noc2ccccc12)N1CC(CCOc2cccc(Oc3ccc(Cl)cc3)c2)C1 [Example 43, 3-{2-[3-(4-Chloro-phenoxy)-phenoxy]-ethyl}-azetidine-1-carboxylic acid benzo[d]isoxazol-3-ylamide]
IC50 (FAAH): 4 nM
IC50 (rat FAAH): 1 nM

Structure (SMILES): O=C(Nc1cccnc1)N1CC(COc2ccc3ccccc3c2)C1 [Example 20, 3-(Naphthalen-2-yloxymethyl)-azetidine-1-carboxylic acid pyridin-3-ylamide]
IC50 (FAAH): 1000 nM
IC50 (rat FAAH): 1600 nM

Structure (SMILES): O=C(Nc1cccnc1)N1CC(CCOc2cccc(Oc3ccccc3)c2)C1 [Example 32, 3-[2-(3-Phenoxy-phenoxy)-ethyl]-azetidine-1-carboxylic acid pyridin-3-ylamide]
IC50 (FAAH): 360 nM
IC50 (rat FAAH): 430 nM

Structure (SMILES): O=C(Nc1cccnc1)N1CC(COc2ccc3cccnc3c2)C1 [Example 14, 3-(Quinolin-7-yloxymethyl)-azetidine-1-carboxylic acid pyridin-3-ylamide]
IC50 (FAAH): > 10000 nM
IC50 (rat FAAH): > 10000 nM

Structure (SMILES): O=C(Nc1cncc2ccccc12)N1CC(CCOc2cccc(Oc3ccc(Cl)cc3)c2)C1 [Example 38, 3-{2-[3-(4-Chloro-phenoxy)-phenoxy]-ethyl}-azetidine-1-carboxylic acid isoquinolin-4-ylamide]
IC50 (FAAH): 27 nM
IC50 (rat FAAH): 5 nM

Structure (SMILES): O=C(Nc1ccc2nccn2c1)N1CC(CCOc2cccc(Oc3ccc(Cl)cc3)c2)C1 [Example 41, 3-{2-[3-(4-Chloro-phenoxy)-phenoxy]-ethyl}-azetidine-1-carboxylic acid imidazo[1,2-a]pyridin-6-ylamide]
IC50 (FAAH): 3000 nM
IC50 (rat FAAH): 1000 nM

Structure (SMILES): O=C(Nc1cccnc1)N1CC(COc2ccc(Oc3ccccc3)cc2)C1 [Example 16, 3-(4-Phenoxy-phenoxymethyl)-azetidine-1-carboxylic acid pyridin-3-ylamide]
IC50 (FAAH): > 10000 nM
IC50 (rat FAAH): > 10000 nM

Structure (SMILES): O=C(Nc1cccnc1)N1CC(COc2ccc(C(F)(F)F)c(Cl)c2)C1 [Example 10, 3-(3-Chloro-4-trifluoromethyl-phenoxymethyl)-azetidine-1-carboxylic acid pyridin-3-ylamide]
IC50 (FAAH): 1400 nM
IC50 (rat FAAH): 300 nM

Structure (SMILES): O=C(Nc1cccnc1)N1CC(CCOc2cccc(Oc3ccc(OC(F)(F)F)cc3)c2)C1 [Example 29, 3-{2-[3-(4-Trifluoromethoxy-phenoxy)-phenoxy]-ethyl}-azetidine-1-carboxylic acid pyridin-3-ylamide]
IC50 (FAAH): 53 nM
IC50 (rat FAAH): 400 nM

Structure (SMILES): O=C(Nc1cccnc1)N1CC(COc2ccc3ccccc3n2)C1 [Example 9, 3-(Quinolin-2-yloxymethyl)-azetidine-1-carboxylic acid pyridin-3-ylamide]
IC50 (FAAH): 1300 nM
IC50 (rat FAAH): 1300 nM

Structure (SMILES): O=C(Nc1cccnc1)N1CC(COc2cccc(OCc3ccccc3)c2)C1 [Example 23, 3-(3-Benzyloxy-phenoxymethyl)-azetidine-1-carboxylic acid pyridin-3-ylamide]
IC50 (FAAH): 300 nM
IC50 (rat FAAH): 940 nM

Structure (SMILES): O=C(Nc1cccnc1)N1CC(COc2ccc(OCc3ccccc3)cc2)C1 [Example 19, 3-(4-Benzyloxy-phenoxymethyl)-azetidine-1-carboxylic acid pyridin-3-ylamide]
IC50 (FAAH): > 10000 nM
IC50 (rat FAAH): > 10000 nM

Continued, values first:

IC50 (FAAH): 63 nM
IC50 (rat FAAH): 73 nM
Structure (SMILES): O=C(Nc1cnccc1Cl)N1CCC(CCOc2cccc(Oc3ccc(Cl)cc3)c2)C1 (centres unmarked) [Example 64, 3-{2-[3-(4-Chloro-phenoxy)-phenoxy]-ethyl}-pyrrolidine-1-carboxylic acid (4-chloro-pyridin-3-yl)-amide]

IC50 (FAAH): 39 nM
IC50 (rat FAAH): 84 nM
Structure (SMILES): O=C(Nc1cnccc1Cl)N1CC(CCOCc2ccc(Cl)c(Cl)c2)C1 [Example 67, 3-[2-(3,4-Dichloro-benzyloxy)-ethyl]-azetidine-1-carboxylic acid (4-chloro-pyridin-3-yl)-amide]

IC50 (FAAH): 9 nM
IC50 (rat FAAH): 33 nM
Structure (SMILES): O=C(Nc1cnccc1Cl)N1CCC(COc2ccc(Cl)c(Cl)c2)C1 (centres unmarked) [Example 49, N-(4-Chloropyridin-3-yl)-3-[(3,4-dichlorophenoxy)methyl]pyrrolidine-1-carboxamide]

IC50 (FAAH): 200 nM
IC50 (rat FAAH): 62 nM
Structure (SMILES): O=C(Nc1cccnc1)N1CCC(COc2cccc(Oc3ccc(Cl)cc3)c2)C1 (centres unmarked) [Example 51, 3-{[3-(4-Chlorophenoxy)phenoxy]methyl}-N-pyridin-3-ylpyrrolidine-1-carboxamide]

IC50 (FAAH): 3000 nM
IC50 (rat FAAH): > 10000 nM
Structure (SMILES): O=C(Nc1cnccc1Cl)N1CCC(CCOc2ccccc2)C1 (centres unmarked) [Example 57, 3-(2-Phenoxy-ethyl)-pyrrolidine-1-carboxylic acid (4-chloropyridin-3-yl)-amide]

IC50 (FAAH): 58 nM
IC50 (rat FAAH): 48 nM
Structure (SMILES): O=C(Nc1cccnc1)N1CCC(CCc2cccc(Oc3ccc(F)cc3)c2)C1 (centres unmarked) [Example 79, 3-{2-[3-(4-Fluoro-phenoxy)-phenyl]-ethyl}-pyrrolidine-1-carboxylic acid pyridin-3-ylamide]

Source: patent US8901111B2, “Aryl-substituted heterocyclic urea modulators of fatty acid amide hydrolase” (Janssen Pharmaceutica NV, priority 2009, dated 2014)
